Experimental data: publication PMC3927474, “Whole body synthesis rates of DHA from α-linolenic acid are greater than brain DHA accretion and uptake rates in adult rats” (Journal of Lipid Research, 2014)

Experiment: Balance study: n-3 and n-6 PUFA balance (intake, excretion, accretion, metabolic consumption)
Assay type: in vivo, rat
Conditions: 24 h feces at 8 weeks postweaning, percentage of intake
Method: All procedures were performed in accordance with the policies set out by the Canadian Council on Animal Care and were approved by the Animal Ethics Committee at the University of Toronto. Three Long Evans dams each with 18-day-old male Long Evans pups were ordered from Charles River Laboratories (St. Constant, QC, Canada). Pups were nonlittermates and each dam was housed with pups. Upon arrival, dams were allocated to one of the three diets (described below). When the pups were 21 days old, two pups from each dam were euthanized by high-energy head-focused microwave fixation (4.5 kW for 0.9 s). Brains were removed immediately and stored at -80°C until lipid analysis. Bodies were also stored at -80°C immediately after euthanization until analysis. The brains and bodies of these pups were used to determine the PUFA content of the rats at weaning (i.e., baseline PUFA content). […] For the balance study, the rats were weighed, food intake was determined, and uneaten food was replaced with fresh food on a weekly basis. Rats were euthanized by CO2 asphyxiation. Brains were removed and dissected sagittally. Carcasses and one half brain per rat were stored immediately at -80°C (to be later analyzed for lipid content). […] For the steady-state infusion study and the brain DHA uptake study, a jugular vein catheter was surgically implanted into the rats. […] Carcasses were thawed overnight in a refrigerator at 3°C, cut into pieces, and passed through a #12 hand grinder. After the whole body had passed through the grinder once, the homogenate was mixed together by hand and passed at least one more time through the grinder until the mixture was sufficiently homogeneous. Due to the small size of the pups all of the 21-day-old pup bodies were passed through the grinder together. […] New chloroform was added to the remaining aqueous phase, the mixture was once again centrifuged, and the chloroform layer was extracted and added to the previously extracted chloroform layer. […] One hemisphere was thawed briefly and dissected over ice to separate the brainstem, cerebellum, cortex, hippocampus, striatum, and the rest of the brain. […] The homogenizer was then washed with methanol, which was then transferred to the test tube containing the homogenized brain and KCl. […] The chloroform layer was extracted and new chloroform was added to the aqueous phase. […] At 8 weeks postweaning all the feces produced by a rat in 24 h were collected. […] Mean PUFA excretion (percentage of intake) was determined and applied to all animals to determine PUFA excretion. […] Nu-Check Prep, Elysian, MN) was added to the TLE. […] Samples were injected in […] mode. The injector and detector ports were set at 250°C. […] The carrier gas was helium, set to a constant flow rate of 0.7 ml/min. Peaks were identified by retention times of authentic FAME standards (Nu-Chek Prep). […] The concentrations were expressed on a per gram basis then multiplied by total weight of the tissue to determine the total amount of each fatty acid in the tissue.

CCCCC/C=C\C/C=C\CCCCCCCC(=O)O [LNA, linoleic acid]
Dietary PUFA excreted in the feces: 0.5 ± 0.05%
